Here are results for 2 compounds from US20060286054A1, “PHARMACEUTICAL COMPOSITIONS FOR THE TREATMENT OF PSORIASIS” (Apollo Pharmaceutical, Inc., priority 2005, published 2006).

SMILES strings stand for the structures. “And” between values parts separate entries of the source, which are not always exact repeats. Identical values can stand only once.

For one data set, the system named is keratinocyte. To be noted: Muller et al. 1995; cited from earlier work.
A further data set relates to THP-1 cells. Put plainly: MTT assay of THP-1 cell proliferation. To be noted: titration. It is filed as cell-based. The protocol: THP-1 cells were sub-cultured in 96 well culture plates at a density of 20,000 cells/well. LPS (100 ng/ml) and titrating amounts of Psorberine and/or Calcipotriol were then added to triplicate wells. The cells were cultured for 5 days, at which point the culture plates were centrifuged, the culture media removed and saved, and fresh media containing 0.863 mg/ml MTT added. After culturing for an additional 4 h, the plates were centrifuged again, the media removed from the formazan crystals and the well contents solubilized in DMSO. The absorbance of each well at 560 nm was measured. The data were normalized to the averaged results of the control wells receiving water. The culture supernatants were tested in ELISA (Bio-Source, International) for IL-8, TNF-α and IL-1β content. The effect of Psorberine on THP-1 cell proliferation was examined. […] The increase in the percentage of control seen in the MTT assay at the high concentrations of Psorberine (1:10 and 1:20 dilutions), is most probably due to the strong coloring of the compound (dark green). There is a very high OD recovered from MTT assay upon incubating […] cells with these dilutions of Psorberine.
In general terms: Formazan colour is commonly taken as a measure of viable cells.

The next data set has as its system Peripheral blood T cell. Briefly: T cell proliferation measured by the MTT assay. It is filed as cell-based. To be noted: for MTT % of Control: T cells, W/LPS. As for the experimental part: Twenty ml aliquots of heparinized whole blood were subjected to density gradient centrifugation on Ficoll Hypaque. The buffy coat layers representing peripheral blood mononuclear cells (PBMCs) containing lymphocytes and monocytes were washed once, resuspended in RPMI 1640 containing 10% fetal calf sera and then depleted of B cells and monocytes with a T cell enrichment column (R&D Systems). The T cell preparations were centrifuged, resuspended in 5 ml of incomplete RPMI and counted using a hemocytometer. Aliquots of each cell preparation (40,000 cells in 200 μl of incomplete RPMI) were placed in the wells of 96 well culture plates and cultured overnight at 37° C. under 5% CO2. Twenty five μl of RPMI containing 1 μg/ml PMA and 8 μg/ml ionomycin. After culturing for 24 h, the plates were centrifuged at 1200 rpm for 10 min and the culture supernatants removed and saved. Two hundred μl of complete RPMI containing 0.86 mg/ml MTT was added to each well and the plates cultured for an additional 4 h. The plates were centrifuged again, the media removed and the well contents solubilized in 100% DMSO. The optical density at 560 nm of each well was determined and the averaged mean of the duplicate well calculated. The background OD560 value, determined from control wells receiving media containing no MTT, was subtracted from these values and the data normalized to that of the control wells (0 nM compound). IL-2 secretion by activated T cells was determined in the culture supernatants of these cells. The supernatants were assessed using the R&D Biosystems ELISA kit for human IL-2.

In data set [1] the test system is IL-2. Briefly: IL-2 release from THP-1 cells. It is filed as cell-based. To be noted: titration curve centered at ˜5 nM.
In data set [2] the test system is IL-2. Briefly: IL-2 secretion by peripheral blood T cells activated with PMA plus ionomycin (ELISA). To be noted: 24 h, between 0.01-10 nM. It is filed as cell-based, human. As for the experimental part: Twenty ml aliquots of heparinized whole blood were subjected to density gradient centrifugation on Ficoll Hypaque. The buffy coat layers representing peripheral blood mononuclear cells (PBMCs) containing lymphocytes and monocytes were washed once, resuspended in RPMI 1640 containing 10% fetal calf sera and then depleted of B cells and monocytes with a T cell enrichment column (R&D Systems). The T cell preparations were centrifuged, resuspended in 5 ml of incomplete RPMI and counted using a hemocytometer.
Aliquots of each cell preparation (40,000 cells in 200 μl of incomplete RPMI) were placed in the wells of 96 well culture plates and cultured overnight at 37° C. under 5% CO2. […] The optical density at 560 nm of each well was determined and the averaged mean of the duplicate well calculated. The background OD560 value, determined from control wells receiving media containing no MTT, was subtracted from these values and the data normalized to that of the control wells (0 nM compound). IL-2 secretion by activated T cells was determined in the culture supernatants of these cells. The supernatants were assessed using the R&D Biosystems ELISA kit for human IL-2.
The release of IL-2 was also determined 24 h after stimulating peripheral blood T cells with PMA plus ionomycin, in the presence or absence of Psorberine and/or Calcipotriol. […]
In general terms: In an ELISA, binding on a coated surface is turned into a signal by an enzyme label.

The subject of data set [3] is Jurkat cells. Briefly: In vitro chemotaxis assay of Jurkat cells towards SDF-1α. It is filed as cell-based. To be noted: for Cell Number (migrated cells per filter) / Migration Index (MI): filters 1-4. The protocol: Jurakt cells ere grown in cultures in the presence of complete RPMI media. These cells were split one day prior to the assay. More than 99% viable cells were used in the chemotaxis assay. SDF-1α was purchased from Peprotech, Inc.
96 well plate chemotaxis chambers with a pore size of […] (ChemoTx, Neuro Probe, Inc.) were used in this assay. In the lower wells 30 μl of either RPMI plus 0.1% BSA (control), or 30 μl containing 1 μg/ml SDF-1α (positive chemotaxis) were placed. In other wells, 24 μl containing 1 μg/ml SDF-1α was added to 6 μl of media containing the appropriate concentrations of Psorberine, Calcipotriol or their combination. In the upper wells, 20 μl of media containing 20,000 cells (1×10^6/ml) either alone or in combinations with the compounds were placed. After 2 h, the upper part of the filters was washed with coton swaps to remove the non-migrating cells, and the filters were fixed with absolute methanol for 3 minutes. After this, the filters were stained with 15% Giemsa stain for 7.5 min. The filters were washed three times with distilled water, and the cells migrating to the lower wells were counted under light micriscope. For control (cells migrating in the absence of the chemoattractant), 7 filters were used, whereas 4 filters were used in the experimental conditions. Migration Index (MI) was calculated by dividing the number of cells migrating in the experimental filters by the average number of cells migrating in the control filters.

Data set [4] has as its system Jurkat cells. Briefly: Viability of Jurkat cells (Trypan blue exclusion). It is filed as cell-based. As for the experimental part: The chemotaxis assay was corroborated by determining the viability of Jurkat cells. Viability of these cells either incubated in culture medium alone or with Psorberine or Calcipotriol under the same conditions as in the chemotaxis assay, was done by distinguishing dead from viable cells in the Trypan blue exclusion test. Viability of THP-1 cells was determined after incubating these cells with various concentrations of Psorberine for 4 h.

[5] abbreviates: 1 μg/ml SDF-1α + 20 nM Calcipotriol.
Where [6] appears, read: 1 μg/ml SDF-1α + 80 nM Calcipotriol.
The mark [7] stands for this setting: 1 μg/ml SDF-1α + 160 nM Calcipotriol.

On to `COc1ccc2cc3[n+](cc2c1OC)CCc1cc2c(cc1-3)OCO2` [berberine], for which, in the data set with keratinocyte, the “keratinocyte growth in vitro” value is on record as “inhibits”.
Regarding `C=C1/C(=C\C=C2/CCC[C@]3(C)[C@@H]([C@H](C)/C=C/[C@@H](O)C4CC4)CC[C@@H]23)C[C@@H](O)C[C@@H]1O` [Calcipotriol, calcipotriol], the “effect of titrating levels on THP-1 cell proliferation” value in the data set on THP-1 cells is on record as “multi-phasic, with stimulation seen above concentrations of 1 nM”. For the same compound, the “MTT % of Control” value in the data set with Peripheral blood T cell (concentration 0.050 (unit not given)) is recorded as 109.0164%; in the data set on Peripheral blood T cell (concentration 0.100 (unit not given)) it was 88.52%; in the data set with Peripheral blood T cell (concentration 0.500 (unit not given)), 107.377%; in the data set on Peripheral blood T cell (concentration 1.000 (unit not given)) it was 99.18%; with Peripheral blood T cell (concentration 5.000 (unit not given)), 78.69%; in the data set on Peripheral blood T cell (concentration 10.000 (unit not given)), 116.3934%. Besides, the “MTT % of Control” value is listed as 113.1148% with Peripheral blood T cell (concentration 50.000 (unit not given)) and 83.61% in the data set on Peripheral blood T cell (concentration 100.000 (unit not given)). Further, the T cell proliferation result with Peripheral blood T cell (absence or presence of PMA plus ionomycin) is given as “Significant differences in T cell proliferation were not observed”. Further, the IL-2 release result with IL-2 [1] is recorded as “slight increase”. In addition, the “reduction of IL-2 concentration” value in the data set with IL-2 [2] is given as 40-50%. Moreover, the “Cell Number (migrated cells per filter)” value in the data set on Jurkat cells [3] (setting [5]) is 240 and 200 and 155 and 170; with Jurkat cells [3] (setting [6]) it was 240 and 160 and 180 and 220; in the data set on Jurkat cells [3] (setting [7]), 200 and 198 and 150 and 205. Moreover, the “Migration Index (MI)” value in the data set with Jurkat cells [3] (setting [5]) was 5.7 and 4.8 and 3.7 and 4.1; with Jurkat cells [3] (setting [6]) it was 5.7 and 3.8 and 4.3 and 5.2; in the data set on Jurkat cells [3] (setting [7]) it was 4.8 and 4.7 and 3.6 and 4.9. Further, in the data set with Jurkat cells [3] (between 20-160 nM), the “SDF-1α-induced Jurkat cell chemotaxis” value was “did not affect”. Also, the “# Dead Cells” value in the data set on Jurkat cells [4] (20 nM Calcipotriol) was determined as 178; in the data set on Jurkat cells [4] (80 nM Calcipotriol), 175; with Jurkat cells [4] (160 nM Calcipotriol), 134. Besides, the “# Viable Cells” value in the data set on Jurkat cells [4] (20 nM Calcipotriol) came out at 18; with Jurkat cells [4] (80 nM Calcipotriol), 17; in the data set on Jurkat cells [4] (160 nM Calcipotriol), 11. Besides, the “% Viability” value came out at 91% in the data set with Jurkat cells [4] (20 nM Calcipotriol), 91% with Jurkat cells [4] (80 nM Calcipotriol) and 92% with Jurkat cells [4] (160 nM Calcipotriol).
